For data set [1], the system named is Danio rerio. Description: Toxicity in zebrafish AB embryos assessed as induction of patterning deffects at 10 uM dosed every 24 hrs measured 72 hrs post fertilization. Particulars: in vivo. Format: organism-based.
For data set [2], the target named is T1, Ecdysone receptor (Bombyx mori) (UniProt P49881).
T1 sequence (whole entry): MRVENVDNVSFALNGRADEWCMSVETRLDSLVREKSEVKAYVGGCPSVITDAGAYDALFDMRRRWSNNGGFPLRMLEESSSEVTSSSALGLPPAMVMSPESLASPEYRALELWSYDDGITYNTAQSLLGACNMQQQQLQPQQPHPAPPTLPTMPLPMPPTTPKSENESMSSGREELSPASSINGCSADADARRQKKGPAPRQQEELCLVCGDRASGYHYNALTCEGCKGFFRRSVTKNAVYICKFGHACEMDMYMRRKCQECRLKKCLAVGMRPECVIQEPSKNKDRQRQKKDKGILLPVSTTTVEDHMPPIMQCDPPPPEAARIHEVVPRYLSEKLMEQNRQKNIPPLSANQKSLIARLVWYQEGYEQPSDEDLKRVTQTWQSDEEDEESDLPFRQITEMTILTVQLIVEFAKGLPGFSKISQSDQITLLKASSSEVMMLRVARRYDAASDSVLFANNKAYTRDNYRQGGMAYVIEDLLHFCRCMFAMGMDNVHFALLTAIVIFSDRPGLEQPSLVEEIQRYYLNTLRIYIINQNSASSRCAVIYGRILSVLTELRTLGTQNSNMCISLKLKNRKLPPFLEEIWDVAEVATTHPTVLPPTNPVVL
The data set can be described thus: Activation of Bombyx mori Ecdysone receptor (amino acids 272-606) expressed in HEK293 cells transfected with cytomegalovirus promoter-driven expression construct encoding chimeric transactivator composed of DBD and homodimerization domains of yeast Gal4 (amino acids 1-146) and VP16 activation domain (amino acids (456-490) at 10 uM exposed for 16 hrs by Gal4 dependent luciferase reportre gene assay relative to untreated control. The data set is classed as cell-based.

The target of data set [3] is T1, Ecdysone receptor (Bombyx mori). The data set can be described thus: Activation of Bombyx mori Ecdysone receptor (amino acids 272-606) expressed in HEK293 cells transfected with cytomegalovirus promoter-driven expression construct encoding chimeric transactivator composed of DBD and homodimerization domains of yeast Gal4 (amino acids 1-146) and VP16 activation domain (amino acids (413-476) at 10 uM exposed for 16 hrs by Gal4 dependent luciferase reportre gene assay relative to untreated control. Format: cell-based.

The target is the same in data set [4]. The data set can be described thus: Activation of Bombyx mori Ecdysone receptor (amino acids 272-606) expressed in HEK293 cells transfected with cytomegalovirus promoter-driven expression construct encoding chimeric transactivator composed of DBD and homodimerization domains of yeast Gal4 (amino acids 1-146) and VP16 activation domain (amino acids (413-490) at 10 uM exposed for 16 hrs by Gal4 dependent luciferase reportre gene assay relative to untreated control. Format: cell-based.

For data set [5] the target is unchanged. The data set can be described thus: Activation of Bombyx mori Ecdysone receptor (amino acids 272-606) expressed in HEK293 cells transfected with cytomegalovirus promoter-driven expression construct encoding chimeric transactivator composed of DBD and homodimerization domains of yeast Gal4 (amino acids 1-146) and VP16 activation domain (amino acids (468-490) at 10 uM exposed for 16 hrs by Gal4 dependent luciferase reportre gene assay relative to untreated control. Format: cell-based.

The target is the same in data set [6]. The data set can be described thus: Activation of Bombyx mori Ecdysone receptor (amino acids 272-606) expressed in HEK293 cells transfected with cytomegalovirus promoter-driven expression construct encoding chimeric transactivator composed of DBD and homodimerization domains of yeast Gal4 (amino acids 1-146) and VP16 activation domain (amino acids (413-456) at 10 uM exposed for 16 hrs by Gal4 dependent luciferase reportre gene assay relative to untreated control. The data set is classed as cell-based.

The target is the same in data set [7]. The data set can be described thus: Activation of Bombyx mori Ecdysone receptor (amino acids 272-606) expressed in HEK293 cells transfected with cytomegalovirus promoter-driven expression construct encoding chimeric transactivator composed of DBD and homodimerization domains of yeast Gal4 (amino acids 1-146) and VP16 activation domain (amino acids (413-468) at 10 uM exposed for 16 hrs by Gal4 dependent luciferase reportre gene assay relative to untreated control. Format: cell-based.

For data set [8] the target is unchanged. The data set can be described thus: Activation of Bombyx mori Ecdysone receptor (amino acids 272-606) expressed in AB zebrafish embryos transfected with cytomegalovirus promoter-driven expression construct encoding chimeric transactivator composed of DBD and homodimerization domains of yeast Gal4 (amino acids 1-146) and VP16 activation domain (amino acids (468-490) at 10 uM exposed for 16 hrs by Gal4 dependent luciferase reportre gene assay relative to untreated control.

The test system of data set [9] is T2, Ecdysone receptor (Bombyx mori), P49881 [V454I,Y474E].
T2 sequence (whole entry): T1 sequence (whole entry) with V454I, Y474E
The data set can be described thus: Activation of Bombyx mori Ecdysone receptor V454I and Y474E mutant (amino acids 272-606) expressed in AB zebrafish embryos transfected with cytomegalovirus promoter-driven expression construct encoding chimeric transactivator composed of DBD and homodimerization domains of yeast Gal4 (amino acids 1-146) and VP16 activation domain (amino acids (468-490) at 50 uM exposed for 2 to 6 hrs at 4 hrs post fertilization by Gal4 dependent luciferase reportre gene assay relative to untreated control.

For data set [10] the test system is unchanged. The data set can be described thus: Activation of Bombyx mori Ecdysone receptor V454I and Y474E mutant (amino acids 272-606) expressed in AB zebrafish embryos transfected with cytomegalovirus promoter-driven expression construct encoding chimeric transactivator composed of DBD and homodimerization domains of yeast Gal4 (amino acids 1-146) and VP16 activation domain (amino acids (468-490) at 10 uM exposed for 16 hrs by Gal4 dependent luciferase reportre gene assay relative to untreated control.

Data set [11] addresses T1, Ecdysone receptor (Bombyx mori). The data set can be described thus: Activation of Bombyx mori Ecdysone receptor (amino acids 272-606) expressed in AB zebrafish embryos transfected with cytomegalovirus promoter-driven expression construct encoding chimeric transactivator composed of DBD and homodimerization domains of yeast Gal4 (amino acids 1-146) and VP16 activation domain (amino acids (413-456) at 10 uM exposed for 16 hrs by Gal4 dependent luciferase reportre gene assay relative to untreated control.

Data set [12] shares this target. Description: Activation of Bombyx mori Ecdysone receptor (amino acids 272-606) expressed in AB zebrafish embryos transfected with cytomegalovirus promoter-driven expression construct encoding chimeric transactivator composed of DBD and homodimerization domains of yeast Gal4 (amino acids 1-146) and VP16 activation domain (amino acids ([…]) at 10 uM exposed for 16 hrs by Gal4 dependent luciferase reportre gene assay relative to untreated control.

Data set [13] shares this target. Description: Activation of Bombyx mori Ecdysone receptor (amino acids 272-606) expressed in AB zebrafish embryos transfected with cytomegalovirus promoter-driven expression construct encoding chimeric transactivator composed of DBD and homodimerization domains of yeast Gal4 (amino acids 1-146) and VP16 activation domain (amino acids (413-490) at 10 uM exposed for 16 hrs by Gal4 dependent luciferase reportre gene assay relative to untreated control.

For data set [14], the system named is T2, Ecdysone receptor (Bombyx mori), P49881 [V454I,Y474E]. The data set can be described thus: Induction of nuclear translocation of Bombyx mori Ecdysone receptor V454I and Y474E mutant (amino acids 272-606) expressed in AB zebrafish embryos transfected with cytomegalovirus promoter-driven expression construct encoding chimeric transactivator composed of DBD and homodimerization domains of yeast Gal4 (amino acids 1-146) and VP16 activation domain (amino acids (468-490) at 1 uM exposed for 30 mins at 4 hrs post fertilization by Gal4 dependent luciferase reportre gene assay relative to untreated control.

The target in data set [15] is T1, Ecdysone receptor (Bombyx mori). Description: Activation of Bombyx mori Ecdysone receptor (amino acids 272-606) expressed in AB zebrafish embryos transfected with cytomegalovirus promoter-driven expression construct encoding chimeric transactivator composed of DBD and homodimerization domains of yeast Gal4 (amino acids 1-146) and VP16 activation domain (amino acids (413-468) at 10 uM exposed for 16 hrs by Gal4 dependent luciferase reportre gene assay relative to untreated control.

Data set [16] is filed under the species Danio rerio. The data set can be described thus: Toxicity in zebrafish AB embryos assessed as induction of patterning deffects at 10 uM single dose measured 72 hrs post fertilization. Format: organism-based. Conditions: in vivo.
Data set [17] addresses T1, Ecdysone receptor (Bombyx mori). Description: Activation of Bombyx mori Ecdysone receptor (amino acids 272-606) expressed in AB zebrafish embryos transfected with cytomegalovirus promoter-driven expression construct encoding chimeric transactivator composed of DBD and homodimerization domains of yeast Gal4 (amino acids 1-146) and VP16 activation domain (amino acids (413-476) at 10 uM exposed for 16 hrs by Gal4 dependent luciferase reportre gene assay relative to untreated control.

The subject of data set [18] is T2, Ecdysone receptor (Bombyx mori), P49881 [V454I,Y474E]. Description: Activation of Bombyx mori Ecdysone receptor V454I and Y474E mutant (amino acids 272-606) expressed in AB zebrafish embryos transfected with cytomegalovirus promoter-driven expression construct encoding chimeric transactivator composed of DBD and homodimerization domains of yeast Gal4 (amino acids 1-146) and VP16 activation domain (amino acids (456-490) at 10 uM exposed for 16 hrs by Gal4 dependent luciferase reportre gene assay relative to untreated control.

The test system is the same in data set [19]. The data set can be described thus: Activation of Bombyx mori Ecdysone receptor V454I and Y474E mutant (amino acids 272-606)-mediated myl7 gene expression expressed in AB zebrafish embryos transfected with cytomegalovirus promoter-driven expression construct encoding chimeric transactivator composed of DBD and homodimerization domains of yeast Gal4 (amino acids 1-146) and VP16 activation domain (amino acids (468-490) assessed as myl7-promoter driven heart specific GFP expression at 10 uM exposed during 3 to 48 hrs post fertilization by Gal4 dependent luciferase reportre gene assay relative to untreated control.

Data set [20] shares this test system. Description: Activation of Bombyx mori Ecdysone receptor V454I and Y474E mutant (amino acids 272-606)-mediated mylz2 gene expression expressed in AB zebrafish embryos transfected with cytomegalovirus promoter-driven expression construct encoding chimeric transactivator composed of DBD and homodimerization domains of yeast Gal4 (amino acids 1-146) and VP16 activation domain (amino acids (468-490) assessed as mylz2-promoter driven fats skeletal muscle specific GFP expression at 10 uM exposed during 3 to 48 hrs post fertilization by Gal4 dependent luciferase reportre gene assay relative to untreated control.

Where a chain is given by its changes, count along the chain named. Calls of active or inactive are those of the source. The calls are words filed in the database; no cut-off is given here.

In the case of `Cc1cc(C)cc(C(=O)N(NC(=O)c2ccc3c(c2C)OCCO3)C(C)(C)C)c1`, the Activity entry in data set [1] is reported as “Non-toxic”.
On the same count and under the same terms, under `COc1cccc(C(=O)NN(C(=O)c2cc(C)cc(C)c2)C(C)(C)C)c1C` [METHOXYFENOZIDE] stands “Non-toxic”.
Consider `CC(C)CC[C@@H](O)[C@](C)(O)[C@H]1CC[C@@]2(O)C3=CC(=O)[C@@H]4C[C@@H](O)[C@@H](O)C[C@]4(C)[C@H]3CC[C@]12C` [PONASTERONE A], for which the Activity entry in data set [1] is listed as “Non-toxic”. The fold change (FC) stood at 55.5 in data set [2]; 18.7 in [3]; 6.05 in data set [4]; 19.5 in data set [5]; 26.1 in data set [6]; 44 in [7].
As for `CCc1ccc(C(=O)NN(C(=O)c2cc(C)cc(C)c2)C(C)(C)C)cc1` [TEBUFENOZIDE], the Activity entry is “Non-toxic” in data set [1], “Non-toxic” in data set [16], 44% in data set [19] and 69% in data set [20]. The fold change (FC) in data set [8] turned out to be 113; in [2] it was 1420; in [3], 57; in data set [10], 1070; in [11], 1.13; in data set [12], 42.2. The fold change (FC) was determined as 14.5 in data set [4]; 0.8 in data set [13]; 880 in data set [5]; 5.05 in data set [15]; 139 in [6]; 1.73 in data set [17]. Also, the fold change (FC) was 212 in [18] and 114 in [7]. The result in data set [9] and in data set [14] was Active.

The record behind these values is ChEMBL document CHEMBL1240322, “Small-molecule regulation of zebrafish gene expression” (Nat Chem Biol, 2007).
